Test [1] addresses Cyclin-dependent kinase 2 (Homo sapiens, UniProt P24941). Description: In vitro inhibition of Cyclin-dependent kinase 2 was determined.
The target in test [2] is Cyclin-dependent kinase 1 (Homo sapiens, UniProt P06493). Description: Inhibition of Cyclin-dependent kinase 1.

A value given as a limit tells only on which side of the number the result lay.

Cyclin-dependent kinase 1, sequence (P06493 whole entry): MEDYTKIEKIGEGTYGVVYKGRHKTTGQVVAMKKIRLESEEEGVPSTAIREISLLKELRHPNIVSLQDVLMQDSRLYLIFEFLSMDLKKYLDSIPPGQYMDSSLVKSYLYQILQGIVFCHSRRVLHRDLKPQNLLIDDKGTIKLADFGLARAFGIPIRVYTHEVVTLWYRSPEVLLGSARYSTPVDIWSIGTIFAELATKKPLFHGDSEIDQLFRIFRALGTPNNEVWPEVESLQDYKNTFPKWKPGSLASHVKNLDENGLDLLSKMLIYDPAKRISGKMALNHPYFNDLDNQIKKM

Compound `COc1ccc(-c2cc(Nc3ccc(S(N)(=O)=O)cc3)[nH]n2)cc1F` had an IC50 in test [1] of 407 nM. Compound `NS(=O)(=O)c1ccc(Nc2cc(-c3cccc(Br)c3)n[nH]2)cc1` had an IC50 in test [1] of 23.4 nM. As for `NS(=O)(=O)c1ccc(Nc2cc(-c3ccc(O)c(F)c3)n[nH]2)cc1` [GW831091X], the IC50 in test [2] turned out to be 200 nM; in test [1] it was 12.6 nM. `NS(=O)(=O)c1ccc(Nc2cc(-c3ccc([N+](=O)[O-])cc3)n[nH]2)cc1`: the IC50 in test [1] came to 0.33 nM. As for `COc1cccc(-c2cc(Nc3ccc(S(N)(=O)=O)cc3)[nH]n2)c1`, the IC50 is 398 nM in test [2] and 24.5 nM in test [1].

`CS(=O)(=O)Nc1ccc(Nc2cc(-c3cccc(Br)c3)n[nH]2)cc1`: the IC50 in test [1] was found to be 602 nM. `NS(=O)(=O)c1ccc(Nc2cc(-c3cccc(N4CCOCC4)c3)n[nH]2)cc1` yielded an IC50 in test [1] of 490 nM. In the case of `Nc1cccc(-c2cc(Nc3ccc(S(N)(=O)=O)cc3)[nH]n2)c1`, the IC50 in test [1] is 166 nM. As to `NS(=O)(=O)c1ccc(Nc2cc(-c3ccc(F)cc3)n[nH]2)cc1`, in test [1], the IC50 was 17.4 nM. Take `NS(=O)(=O)c1ccc(Nc2cc(-c3cccc(O)c3)n[nH]2)cc1` [GW831090X]: the IC50 stood at 398 nM in test [2] and 9.1 nM in test [1]. In turn, `NS(=O)(=O)c1cccc(Nc2cc(-c3ccc(F)cc3)n[nH]2)c1` came in with an IC50 in test [1] of 871 nM. For `Nc1ccc(-c2cc(Nc3ccc(S(N)(=O)=O)cc3)[nH]n2)cc1`, the values for the IC50 in test [2] and in test [1] were 501 nM and 0.34 nM, respectively.

Take `NS(=O)(=O)c1ccc(Nc2cc(-c3ccc(Br)cc3)n[nH]2)cc1`: the IC50 in test [2] worked out at 126 nM; in test [1], 10 nM. Compound `CN(C)c1ccc(-c2cc(Nc3ccc(S(N)(=O)=O)cc3)[nH]n2)cc1` returned an IC50 in test [1] above 2000 nM. As for `NS(=O)(=O)c1ccc(Nc2cc(-c3cccc(NC(=O)Nc4cc(C(F)(F)F)ccc4F)c3)n[nH]2)cc1`, the IC50 in test [2] worked out at 794 nM; in test [1], 61.6 nM. The like results for `NS(=O)(=O)c1ccc(Nc2cc(-c3cccc(NS(=O)(=O)c4ccccc4)c3)n[nH]2)cc1` were, in that order, 501 nM and 10.7 nM. With `CS(=O)(=O)Nc1cccc(-c2cc(Nc3ccc(S(N)(=O)=O)cc3)[nH]n2)c1`, the IC50 was found to be 501 nM in test [2] and 10.7 nM in test [1].

The values are drawn from ChEMBL document CHEMBL1136197, “Anilinopyrazole as selective CDK2 inhibitors: design, synthesis, biological evaluation, and X-ray crystallographic analysis” (Bioorg Med Chem Lett, 2003).
